Reference: the supplement of paper PMC11208160

test: recombinant UMI read abundance after kanamycin selection (control-corrected) (log10(CPM+1)); higher = more efficient recombination; extreme values may be limits of the assay; sequences stand for … in AGTGCAGAGAAAATCGGCCAGTTTTCTCTGCCTGCAGTCCGCATGCCGTGGGACCCCTTGGGTTCTAACCTGTTGCCTAGATTTATGCAGCGGACTGCCTTTCTCCCAAAGTGATAAACCGG…AGGTTGGTTTCACT; site = the 11-nt donor
Method in brief: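 Two replicates each of selected and unselected plating were used in this pooled Escherichia coli screen of donor and donor-binding-loop pairs for the IS621 bridge recombinase. Selection was with IPTG (0.07 mM) and kanamycin. Counts of recombinant UMIs, amplified across the donor–target junction, were converted to CPM, averaged, scaled by control-derived factors and reported as log10(CPM+1).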
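Further: IS621 bridge recombinase in Escherichia coli cells against a fixed T5 target plasmid.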

Row | Sequence | recombinant UMI read abundance (log10)
1 | TAACGAACATGGACCGGTTTTCCCGGTAATCCGTATTTGAC (site TAACGAACTGT) | 2.86
2 | TAACGGCCATGGACCGGTTTTCCCGGTAATCCGTATTTGAA (site TAACGGCCTTT) | 0.00367
3 | TAACTACCATGGACCGGTTTTCCCGGTAATCCGTATTTGTT (site TAACTACCTAA) | 0.00587
4 | TAACTAGCATGGACCGGTTTTCCCGGTAATCCGTATTTGAA (site TAACTAGCTTT) | 1.57
5 | TAACTAGCATGGACCGGTTTTCCCGGTAATCCGTATTTGAA (site TACCTAGCTTT) | 0.34
6 | TAACTAGCATGGACCGGTTTTCCCGGTAATCCGTATTTGAA (site TAGCTAGCTTT) | 0.00713
7 | TAACTAGCATGGACCGGTTTTCCCGGTAATCCGTATTTGAA (site TATCTAGCTTT) | 0
8 | TAACTTACATGGACCGGTTTTCCCGGTAATCCGTATTTGAT (site TAACTTACTAT) | 0.731
9 | TAAGATTCATGGACCGGTTTTCCCGGTAATCCGTATTTGTT (site AAAGATTCTAA) | 0
10 | TAAGATTCATGGACCGGTTTTCCCGGTAATCCGTATTTGTT (site CAAGATTCTAA) | 1.43
11 | TAAGATTCATGGACCGGTTTTCCCGGTAATCCGTATTTGTT (site GAAGATTCTAA) | 0
12 | TAAGATTCATGGACCGGTTTTCCCGGTAATCCGTATTTGTT (site TAAGATTCTAA) | 2.02
13 | TAAGCAGCATGGACCGGTTTTCCCGGTAATCCGTATTTGGC (site TAAGCAGCTGC) | 2.92
14 | TAAGCTGCATGGACCGGTTTTCCCGGTAATCCGTATTTGTG (site TAAGCTGCTCA) | 0.65
15 | TAAGCTGCATGGACCGGTTTTCCCGGTAATCCGTATTTGTG (site TCAGCTGCTCA) | 0.00238
16 | TAAGCTGCATGGACCGGTTTTCCCGGTAATCCGTATTTGTG (site TGAGCTGCTCA) | 0.0127
17 | TAAGCTGCATGGACCGGTTTTCCCGGTAATCCGTATTTGTG (site TTAGCTGCTCA) | 0.00901
18 | TAAGGGCCATGGACCGGTTTTCCCGGTAATCCGTATTTGAG (site TAAGGGCCTCT) | 0.221
19 | TAAGTATCATGGACCGGTTTTCCCGGTAATCCGTATTTGAC (site CTAGTATCTGT) | 1.88
20 | TAAGTATCATGGACCGGTTTTCCCGGTAATCCGTATTTGAC (site TAAGTATCTGT) | 3.03
21 | TAATCTACATGGACCGGTTTTCCCGGTAATCCGTATTTGAG (site TAATCTACTCT) | 0.521
22 | TAATGAACATGGACCGGTTTTCCCGGTAATCCGTATTTGGG (site TAATGAACTCC) | 0.00333
23 | TAATGAACATGGACCGGTTTTCCCGGTAATCCGTATTTGGG (site TAATGACCTCC) | 0.0112

Row | Sequence | recombinant UMI read abundance (log10)
24 | TAATGAACATGGACCGGTTTTCCCGGTAATCCGTATTTGGG (site TAATGAGCTCC) | 0.0277
25 | TAATGAACATGGACCGGTTTTCCCGGTAATCCGTATTTGGG (site TAATGATCTCC) | 0.399
26 | TAATGAGCATGGACCGGTTTTCCCGGTAATCCGTATTTGGA (site TAATGAGCTAC) | 0.0122
27 | TAATGAGCATGGACCGGTTTTCCCGGTAATCCGTATTTGGA (site TAATGAGCTCC) | 0.0122
28 | TAATGAGCATGGACCGGTTTTCCCGGTAATCCGTATTTGGA (site TAATGAGCTGC) | 0
29 | TAATGAGCATGGACCGGTTTTCCCGGTAATCCGTATTTGGA (site TAATGAGCTTC) | 0.729
30 | TAATGCGCATGGACCGGTTTTCCCGGTAATCCGTATTTGGG (site TAATGAGCTCC) | 0.0175
31 | TAATGCGCATGGACCGGTTTTCCCGGTAATCCGTATTTGGG (site TAATGCGCTCC) | 0
32 | TAATGCGCATGGACCGGTTTTCCCGGTAATCCGTATTTGGG (site TAATGGGCTCC) | 0.0249
33 | TAATGCGCATGGACCGGTTTTCCCGGTAATCCGTATTTGGG (site TAATGTGCTCC) | 0.00404
34 | TAATGGCCATGGACCGGTTTTCCCGGTAATCCGTATTTGCA (site AAATGGCCTTG) | 0.00563
35 | TAATGGCCATGGACCGGTTTTCCCGGTAATCCGTATTTGCA (site CAATGGCCTTG) | 0.089
36 | TAATGGCCATGGACCGGTTTTCCCGGTAATCCGTATTTGCA (site GAATGGCCTTG) | 0.00525
37 | TAATGGCCATGGACCGGTTTTCCCGGTAATCCGTATTTGCA (site TAATGGCCTTG) | 0.0063
38 | TAATTCGCATGGACCGGTTTTCCCGGTAATCCGTATTTGTG (site TAATTCGCTCA) | 0.0276
39 | TACACCTCATGGACCGGTTTTCCCGGTAATCCGTATTTGAA (site TACACCTCTTT) | 0.804
40 | TACACCTCATGGACCGGTTTTCCCGGTAATCCGTATTTGCA (site TACACCTCTTG) | 2.35
41 | TACAGCCCATGGACCGGTTTTCCCGGTAATCCGTATTTGGA (site TACAGCCCTTC) | 0.0282
42 | TACATCCCATGGACCGGTTTTCCCGGTAATCCGTATTTGAG (site TACATCCCTCT) | 0.0123
43 | TACATGACATGGACCGGTTTTCCCGGTAATCCGTATTTGCG (site TACATGACTCG) | 1.12
44 | TACATGACATGGACCGGTTTTCCCGGTAATCCGTATTTGTG (site TACATGACTCA) | 0.61
45 | TACATGTCATGGACCGGTTTTCCCGGTAATCCGTATTTGTC (site TACATGTCTGA) | 1.56
46 | TACCCACCATGGACCGGTTTTCCCGGTAATCCGTATTTGAC (site TACCCACCTGT) | 0

Row | Sequence | recombinant UMI read abundance (log10)
47 | TACCGTTCATGGACCGGTTTTCCCGGTAATCCGTATTTGTT (site TACCGTTCTAA) | 0.218
48 | TACCTCCCATGGACCGGTTTTCCCGGTAATCCGTATTTGGC (site TACCTCCCTGC) | 0
49 | TACCTGCCATGGACCGGTTTTCCCGGTAATCCGTATTTGTA (site TACCTGCCTTA) | 0.0209
50 | TACCTTACATGGACCGGTTTTCCCGGTAATCCGTATTTGGA (site TACCTTACTTC) | 0.0267
51 | TACGCACCATGGACCGGTTTTCCCGGTAATCCGTATTTGAG (site TACGCACCTCT) | 0.0119
52 | TACGGATCATGGACCGGTTTTCCCGGTAATCCGTATTTGTA (site TACGGATCTTA) | 0.989
53 | TACGGTACATGGACCGGTTTTCCCGGTAATCCGTATTTGTG (site TACGGTACTCA) | 0.582
54 | TACGGTGCATGGACCGGTTTTCCCGGTAATCCGTATTTGAC (site TACGGTGCTGT) | 1.15
55 | TACGTGACATGGACCGGTTTTCCCGGTAATCCGTATTTGCT (site TACATGACTAG) | 1.65
56 | TACGTGACATGGACCGGTTTTCCCGGTAATCCGTATTTGCT (site TACCTGACTAG) | 0.0236
57 | TACGTGACATGGACCGGTTTTCCCGGTAATCCGTATTTGCT (site TACGTGACTAG) | 2.43
58 | TACGTGACATGGACCGGTTTTCCCGGTAATCCGTATTTGCT (site TACTTGACTAG) | 0.238
59 | TACTAGGCATGGACCGGTTTTCCCGGTAATCCGTATTTGGT (site TACTAGGCTAC) | 0.225
60 | TACTAGGCATGGACCGGTTTTCCCGGTAATCCGTATTTGGT (site TCCTAGGCTAC) | 0.0602
61 | TACTAGGCATGGACCGGTTTTCCCGGTAATCCGTATTTGGT (site TGCTAGGCTAC) | 0.0175
62 | TACTAGGCATGGACCGGTTTTCCCGGTAATCCGTATTTGGT (site TTCTAGGCTAC) | 0.00516
63 | TACTATGCATGGACCGGTTTTCCCGGTAATCCGTATTTGCG (site TACTATGCTCG) | 0.64
64 | TACTGGACATGGACCGGTTTTCCCGGTAATCCGTATTTGCT (site TACTAGACTAG) | 0.948
65 | TACTGGACATGGACCGGTTTTCCCGGTAATCCGTATTTGCT (site TACTCGACTAG) | 0.188
66 | TACTGGACATGGACCGGTTTTCCCGGTAATCCGTATTTGCT (site TACTGGACTAG) | 2.01
67 | TACTGGACATGGACCGGTTTTCCCGGTAATCCGTATTTGCT (site TACTTGACTAG) | 0.00209
68 | TACTTGACATGGACCGGTTTTCCCGGTAATCCGTATTTGCC (site TACTTGACTAG) | 0.0078
